We go through eight molecules from patent US20250302815A1, “PROTEIN TYROSINE PHOSPHATASE TARGETING LIGANDS” (CALICO LIFE SCIENCES LLC, priority 2021, published 2025).

Each structure is given as a SMILES string. A value given as a limit tells only on which side of the number the result lay.

The DC50 is the midpoint of the concentration-degradation curve.

The target in data set [1] is T1, PTPN2 (HiBIT-PTPN2 in 293T.109 cells) (Homo sapiens, UniProt P17706).
T1 construct: expressed in transfected cells; host or cells: 293T.109 (293T WT from ATCC)
T1 sequence (P17706 1-415): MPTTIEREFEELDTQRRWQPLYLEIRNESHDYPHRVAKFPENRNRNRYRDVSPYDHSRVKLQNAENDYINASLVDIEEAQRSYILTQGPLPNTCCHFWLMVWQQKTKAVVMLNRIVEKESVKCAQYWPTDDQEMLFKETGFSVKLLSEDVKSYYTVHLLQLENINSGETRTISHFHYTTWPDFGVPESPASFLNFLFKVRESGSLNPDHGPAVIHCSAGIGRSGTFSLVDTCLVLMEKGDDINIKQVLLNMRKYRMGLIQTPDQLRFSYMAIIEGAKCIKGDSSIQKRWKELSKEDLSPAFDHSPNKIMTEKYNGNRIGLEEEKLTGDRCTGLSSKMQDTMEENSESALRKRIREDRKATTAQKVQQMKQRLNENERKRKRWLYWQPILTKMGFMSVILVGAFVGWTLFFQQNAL
Put plainly: HiBiT Degradation 293T.109 PTPN2 (Nano-Glo HiBiT Lytic Assay). As to conditions: 24.0 hours. The data set is classed as cell-based. Put shortly: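 293T.109 cells with ectopic N-terminal HiBiT-tagged PTPN2 (5000/well) exposed to compounds for 24 h at 37 °C, 5% CO2; 11-point half-log titration from 10 μM top, duplicates. Remaining HiBiT-PTPN2 read as luminescence with Nano-Glo HiBiT lytic reagent, normalised to untreated cells (0%) and reagent-free wells.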
(In general: HiBiT is a short tag that completes a luciferase, so light tracks the accessible tagged protein.)

A further data set has as its system MC-38 tumor. The experiment in a line: syngeneic mouse tumor model, MC-38 tumor growth inhibition. It is filed as in vivo. As to conditions: MC-38 tumor-bearing mice, mean tumor volume of 10 mice. The text has this: Each point on the curve represents the mean of 10 tumor volume of 10 mice. Error bars depict the standard error of the mean. **=p<0.01.
The next data set addresses T2, PTPN2 (B16F10.4 cells) (Mus musculus, UniProt Q06180).
T2 construct: HiBiT; host or cells: B16F10.4
T2 sequence (Q06180 1-406): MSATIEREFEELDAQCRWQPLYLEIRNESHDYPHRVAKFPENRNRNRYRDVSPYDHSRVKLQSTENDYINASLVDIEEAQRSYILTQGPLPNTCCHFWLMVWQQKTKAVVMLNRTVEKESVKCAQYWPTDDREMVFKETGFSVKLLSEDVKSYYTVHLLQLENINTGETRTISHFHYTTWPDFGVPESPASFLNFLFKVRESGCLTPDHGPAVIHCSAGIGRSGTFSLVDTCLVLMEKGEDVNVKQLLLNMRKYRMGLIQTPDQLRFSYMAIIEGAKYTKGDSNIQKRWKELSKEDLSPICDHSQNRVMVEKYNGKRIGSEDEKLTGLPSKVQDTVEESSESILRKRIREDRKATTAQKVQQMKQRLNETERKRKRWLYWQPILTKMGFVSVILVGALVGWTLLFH
The experiment in a line: HiBiT Degradation B16F10.4 PTPN2. It is filed as cell-based. The following applies: 24.0 hours.

In data set [2] the test system is MC-38 murine colon adenocarcinoma tumors. Put plainly: In vivo efficacy in MC38 syngeneic tumor model. As to conditions: MC-38 tumor-bearing mice. How it is done: All experiments were conducted in compliance with AbbVie's Institutional Animal Care and Use Committee and the National Institutes of Health Guide for Care and Use of Laboratory Animals guidelines in a facility accredited by the Association for the Assessment and Accreditation of Laboratory Animal Care. C57Bl/6 female mice were obtained from Charles River (Wilmington, MA). The mice were group-housed 10 per cage. Food and water were available ad libitum. Animals were acclimated to the animal facilities for a period of at least one week prior to commencement of experiments. Animals were tested in the light phase of a 12-hour light: 12-hour dark schedule (lights on 0600 hours).
Cells were grown to passage 3 in vitro. A total of 1×10^5 viable MC-38 cells were inoculated subcutaneously into the right flank of female C57Bl/6 mice (7-12 weeks old) on Day 0. The injection volume was 0.1 mL and was composed of a 1:1 mixture of S-MEM and Matrigel® (Corning, NY, USA). […] The mean tumor volume (TV) at size match was approximately 139±45 mm^3. Following size match, treatments were initiated on the same day. Dosing of mice with Compound 187b (Example 187b) was conducted intravenously, weekly (QW) for 3 weeks. Mice were dosed (10 mg/kg/dose) with either Compound 187b or vehicle controls (n=10 mice/group). Compound 187b was formulated in 5% DMSO+10% PEG400+85% (35% HP-β-CD in water) and was dosed at 5 mL/kg. Anti-PD-1 and isotype antibodies were dosed at 5 mg/kg, […] at 4 day intervals (Q4Dx3). Antibodies were formulated in PBS and dosed at 10 mL/kg. Tumor volume was calculated three times weekly. Measurements of the length (L) and width (W) of the tumor were taken via electronic caliper and the volume was calculated according to the following equation: V=L×W^2/2 using Study Director Version 3.1.399.22 (Study log Systems, Inc, CA, USA). Mice were euthanized when tumor volume was […] or skin ulcerations occurred.

[3] abbreviates: combination of anti-PD-1 antibody (5 mg/kg) with Compound 187b (10 mg/kg i.v. QWx3).
Setting [4] is: monotherapy, Compound 187b 10 mg/kg intravenously QW for 3 weeks, anti-PD-1 5 mg/kg intraperitoneal every 4 days.

For the molecule `CC1(C)C[C@@H](Nc2cccc(-c3sc(C(=O)O)c(OCC(=O)O)c3Cl)c2)CCN1S(=O)(=O)Cc1cccc(NC(=O)N2CCC(c3ccc4c5c(cccc35)C(=O)N4[C@H]3CCC(=O)NC3=O)CC2)c1` (single isomer, unassigned) [Example 187b], the DC50 (in data set [1]; on PTPN2 (B16F10.4 cells)) was under 50 nM throughout. The “anticancer and tumor growth inhibition activity in vivo” value in the data set with MC-38 tumor (in combination with anti-PD-1 therapy (Q4Dx2)) is listed as “tumor growth inhibition”; in the data set with MC-38 tumor (monotherapy, QWx3) it was “tumor growth inhibition”. Further, in data set [2] (10 mg/kg intravenously QW for 3 weeks), the tolerability entry is reported as “well tolerated”. Moreover, the entries for the “TGIMax (maximal tumor growth inhibition)” value in data set [2] (setting [3]) and in data set [2] (setting [4]) were 98% and 75%, respectively. Further, the mice achieving cures in data set [2] (setting [3]) is on record as 90%. In addition, the “mice achieving complete cures” value in data set [2] (setting [4]) was 10%. Moreover, in data set [2] (within 7-10 days of monotherapy treatment), the tumor response entry was “apparent tumor stasis and shrinkage”.
In the case of `O=C(O)COc1c(C(=O)O)sc(-c2cccc(NC3CCN(S(=O)(=O)Cc4cccc(NC(=O)CCc5ccc6c(c5)CN(C5CCC(=O)NC5=O)C6=O)c4)CC3)c2)c1Cl` (stereo not drawn) [Example 47], the DC50 (in data set [1]; on PTPN2 (B16F10.4 cells)) was 200 to 1000 nM each time.
In the case of `Cn1c(=O)n(C2CCC(=O)NC2=O)c2ccc(C3CCN(C(=O)Nc4cccc(CS(=O)(=O)N5CC[C@H](Nc6cccc(-c7sc(C(=O)O)c(OCC(=O)O)c7Cl)c6)CC5(C)C)c4)CC3F)cc21` (stereo partly drawn) [Example 170, 3-(carboxymethoxy)-4-chloro-5-[3-[[(4S)-1-[[3-[[4-[1-(2,6-dioxo-3-piperidyl)-3-methyl-2-oxo-benzimidazol-5-yl]-3-fluoro-piperidine-1-carbonyl]amino]phenyl]methylsulfonyl]-2,2-dimethyl-4-piperidyl]amino]phenyl]thiophene-2-carboxylic acid], the DC50 (in data set [1]; on PTPN2 (B16F10.4 cells)) was under 50 nM in each case.
As for `CC1(C)C[C@H](Nc2cccc(-c3sc(C(=O)O)c(OCC(=O)O)c3Cl)c2F)CCN1S(=O)(=O)Cc1ccc(F)c(NC(=O)C2CN(C(=O)CNc3cccc4c3CN(C3CCC(=O)NC3=O)C4=O)C2)c1` (stereo partly drawn) [Example 149], the values for the DC50 (in data set [1]; on PTPN2 (B16F10.4 cells)) were 50 to 200 nM and at least 1000 nM, respectively.
Turning to `CCn1nc(C2CCC(=O)NC2=O)c2ccc(C3CCN(C(=O)Nc4cccc(CS(=O)(=O)N5CC[C@H](Nc6cccc(-c7sc(C(=O)O)c(OCC(=O)O)c7Cl)c6)CC5(C)C)c4)CC3(F)F)cc21` (stereo partly drawn) [Example 200, 3-(carboxymethoxy)-4-chloro-5-[3-[[(4S)-1-[[3-[[4-[3-(2,6-dioxo-3-piperidyl)-1-ethyl-indazol-6-yl]-3,3-difluoro-piperidine-1-carbonyl]amino]phenyl]methylsulfonyl]-2,2-dimethyl-4-piperidyl]amino]phenyl]thiophene-2-carboxylic acid], the DC50 (in data set [1]; on PTPN2 (B16F10.4 cells)) was 50 to 200 nM in each case.
Take `Cn1c(=O)n(C2CCC(=O)NC2=O)c2ccc([C@H]3CCN(C(=O)Nc4cccc(CS(=O)(=O)N5CC[C@H](Nc6cccc(-c7sc(C(=O)O)c(OCC(=O)O)c7Cl)c6)CC5(C)C)c4)CC3(F)F)cc21` (stereo partly drawn) [Example 168, 3-(carboxymethoxy)-4-chloro-5-(3-(((4S)-1-((3-((4R)-4-(1-(2,6-dioxopiperidin-3-yl)-3-methyl-2-oxo-2,3-dihydro-1H-benzo[d]imidazol-5-yl)-3,3-difluoropiperidine-1-carboxamido)benzyl)sulfonyl)-2,2-dimethylpiperidin-4-yl)amino)phenyl)thiophene-2-carboxylic acid]: the DC50 was 50 to 200 nM in data set [1] and under 50 nM on PTPN2 (B16F10.4 cells).
Turning to `CC1(C)C[C@@H](Nc2cccc(-c3sc(C(=O)O)c(OCC(=O)O)c3Cl)c2)CCN1S(=O)(=O)Cc1cccc(NC(=O)C2C[C@@H]3CN(C(=O)COc4cccc5c4CN(C4CCC(=O)NC4=O)C5=O)C[C@@H]3C2)c1` (stereo partly drawn) [Example 100], the DC50 (in data set [1]; on PTPN2 (B16F10.4 cells)) was 200 to 1000 nM in each case.
In the case of `O=C(O)COc1c(C(=O)O)sc(-c2cccc(NC3CCN(S(=O)(=O)Cc4cccc(NC(=O)CCn5cc(CNc6cccc7c6CN(C6CCC(=O)NC6=O)C7=O)cn5)c4)CC3)c2)c1Cl` (stereo not drawn) [Example 38, 3-(carboxymethoxy)-4-chloro-5-[3-[[1-[[3-[3-[4-[[[2-(2,6-dioxo-3-piperidyl)-1-oxo-isoindolin-4-yl]amino]methyl]pyrazol-1-yl]propanoylamino]phenyl]methylsulfonyl]-4-piperidyl]amino]phenyl]thiophene-2-carboxylic acid], the values for the DC50 (in data set [1]; on PTPN2 (B16F10.4 cells)) were 200 to 1000 nM and at least 1000 nM, respectively.
